Experiment: xn = mol fraction of the nth substance listed

CC(=O)O + O
Settings | viscosity [mPa·s]
293.15 K, 101 kPa, x1 = 0.0322 | 1.205
293.15 K, 101 kPa, x1 = 0.0731 | 1.433
293.15 K, 101 kPa, x1 = 0.1134 | 1.649
293.15 K, 101 kPa, x1 = 0.1667 | 1.892
293.15 K, 101 kPa, x1 = 0.2308 | 2.14
293.15 K, 101 kPa, x1 = 0.3102 | 2.385
293.15 K, 101 kPa, x1 = 0.4112 | 2.607
293.15 K, 101 kPa, x1 = 0.7286 | 2.39
293.15 K, 101.33 kPa, x1 = 0.03226 | 1.237
293.15 K, 101.33 kPa, x1 = 0.1139 | 1.696
293.15 K, 101.33 kPa, x1 = 0.2308 | 2.188
293.15 K, 101.33 kPa, x1 = 0.4118 | 2.686
293.15 K, 101.33 kPa, x1 = 0.5011 | 2.784
293.15 K, 101.33 kPa, x1 = 0.5454 | 2.781
293.15 K, 101.33 kPa, x2 = 0.0132 | 1.455
295.3 K, 101.33 kPa, x1 = 0.0321 | 1.135
298.15 K, 101 kPa, x1 = 0.0322 | 1.073
298.15 K, 101 kPa, x1 = 0.0731 | 1.27
298.15 K, 101 kPa, x1 = 0.1134 | 1.452
298.15 K, 101 kPa, x1 = 0.1667 | 1.644
298.15 K, 101 kPa, x1 = 0.2308 | 1.866
298.15 K, 101 kPa, x1 = 0.3102 | 2.086
298.15 K, 101 kPa, x1 = 0.4112 | 2.272
298.15 K, 101 kPa, x1 = 0.5449 | 2.353
298.15 K, 101 kPa, x1 = 0.7286 | 2.105
298.15 K, 101.33 kPa, x1 = 0.016 | 0.988
298.15 K, 101.33 kPa, x1 = 0.034 | 1.08
298.15 K, 101.33 kPa, x1 = 0.0684 | 1.232
298.15 K, 101.33 kPa, x1 = 0.07 | 1.254
298.15 K, 101.33 kPa, x1 = 0.1242 | 1.437
298.15 K, 101.33 kPa, x1 = 0.1648 | 1.633
298.15 K, 101.33 kPa, x1 = 0.2268 | 1.824
298.15 K, 101.33 kPa, x1 = 0.2289 | 1.867
298.15 K, 101.33 kPa, x1 = 0.2844 | 1.986
298.15 K, 101.33 kPa, x1 = 0.3218 | 2.091
298.15 K, 101.33 kPa, x1 = 0.3273 | 2.103
298.15 K, 101.33 kPa, x1 = 0.4187 | 2.248
298.15 K, 101.33 kPa, x1 = 0.436 | 2.333
298.15 K, 101.33 kPa, x1 = 0.4699 | 2.305
298.15 K, 101.33 kPa, x1 = 0.5177 | 2.374
298.15 K, 101.33 kPa, x1 = 0.5367 | 2.254
298.15 K, 101.33 kPa, x1 = 0.737 | 2.06
298.15 K, 101.33 kPa, x1 = 0.8576 | 1.689
298.15 K, 101.33 kPa, x1 = 0.9548 | 1.223
300.27 K, 101.33 kPa, x1 = 0.03428 | 1.014
303.15 K, 101 kPa, x1 = 0.0322 | 0.953
303.15 K, 101 kPa, x1 = 0.0731 | 1.12
303.15 K, 101 kPa, x1 = 0.1134 | 1.276
303.15 K, 101 kPa, x1 = 0.1667 | 1.452
303.15 K, 101 kPa, x1 = 0.2308 | 1.634
303.15 K, 101 kPa, x1 = 0.3102 | 1.816
303.15 K, 101 kPa, x1 = 0.4112 | 1.977
303.15 K, 101 kPa, x1 = 0.7286 | 1.847
303.55 K, 101.33 kPa, x1 = 0.0321 | 0.956
303.65 K, 101.33 kPa, x1 = 0.03428 | 0.939
308.15 K, 101 kPa, x1 = 0.0322 | 0.855
308.15 K, 101 kPa, x1 = 0.0731 | 1.003
308.15 K, 101 kPa, x1 = 0.1134 | 1.135
308.15 K, 101 kPa, x1 = 0.1667 | 1.289
308.15 K, 101 kPa, x1 = 0.2308 | 1.447
308.15 K, 101 kPa, x1 = 0.3102 | 1.612
308.15 K, 101 kPa, x1 = 0.4112 | 1.76
308.15 K, 101 kPa, x1 = 0.5449 | 1.813
308.15 K, 101 kPa, x1 = 0.7286 | 1.653
313.15 K, 100 kPa, x1 = 0.1001 | 0.997
313.15 K, 100 kPa, x1 = 0.2001 | 1.278
313.15 K, 100 kPa, x1 = 0.2998 | 1.467
313.15 K, 100 kPa, x1 = 0.3999 | 1.564
313.15 K, 100 kPa, x1 = 0.4996 | 1.585
313.15 K, 100 kPa, x1 = 0.5999 | 1.548
313.15 K, 100 kPa, x1 = 0.7002 | 1.461
313.15 K, 100 kPa, x1 = 0.7992 | 1.328
313.15 K, 100 kPa, x1 = 0.9001 | 1.14
313.15 K, 101 kPa, x1 = 0.0322 | 0.775
313.15 K, 101 kPa, x1 = 0.0731 | 0.903
313.15 K, 101 kPa, x1 = 0.1134 | 1.014
313.15 K, 101 kPa, x1 = 0.1667 | 1.158
313.15 K, 101 kPa, x1 = 0.2308 | 1.297
313.15 K, 101 kPa, x1 = 0.3102 | 1.426
313.15 K, 101 kPa, x1 = 0.4112 | 1.549
313.15 K, 101 kPa, x1 = 0.5449 | 1.614
313.15 K, 101 kPa, x1 = 0.7286 | 1.48
318.15 K, 101 kPa, x1 = 0.0322 | 0.709
318.15 K, 101 kPa, x1 = 0.0731 | 0.819
318.15 K, 101 kPa, x1 = 0.1134 | 0.922
318.15 K, 101 kPa, x1 = 0.1667 | 1.041
318.15 K, 101 kPa, x1 = 0.2308 | 1.165
318.15 K, 101 kPa, x1 = 0.3102 | 1.286
318.15 K, 101 kPa, x1 = 0.4112 | 1.397
318.15 K, 101 kPa, x1 = 0.5449 | 1.453
318.15 K, 101 kPa, x1 = 0.7286 | 1.34
323.15 K, 101 kPa, x1 = 0.0322 | 0.644
323.15 K, 101 kPa, x1 = 0.0731 | 0.742
323.15 K, 101 kPa, x1 = 0.1134 | 0.842
323.15 K, 101 kPa, x1 = 0.1667 | 0.943
323.15 K, 101 kPa, x1 = 0.2308 | 1.052
323.15 K, 101 kPa, x1 = 0.3102 | 1.166
323.15 K, 101 kPa, x1 = 0.4112 | 1.265
323.15 K, 101 kPa, x1 = 0.5449 | 1.316
323.15 K, 101 kPa, x1 = 0.7286 | 1.235

Source: the CheMixHub viscosity set
